Measurements published in the NIST ThermoML archive (doi:10.1016/j.jct.2015.07.032).

What was measured:
[1] = relative permittivity at various frequencies (dimensionless); details: 100 kPa, Liquid, Frequency=1 MHz, Parallel plate capacitor
[2] = relative permittivity at various frequencies (dimensionless); xn = mol fraction of the nth substance listed; details: 100 kPa, Liquid, Frequency=1 MHz, Parallel plate capacitor

CCCCCCCO [heptan-1-ol]
[1]
Details | relative permittivity
293.15 K | 11.97
298.15 K | 11.47
303.15 K | 10.98

NC1CCCCC1 [cyclohexylamine] + CCCCO
relative permittivity, [2]
Details | 293.15 K | 298.15 K | 303.15 K
x2 = 0 | 4.62 | 4.53 | 4.45
x2 = 0.0493 | 4.99 | 4.9 | 4.8
x2 = 0.1081 | 5.46 | 5.35 | 5.23
x2 = 0.2107 | 6.37 | 6.22 | 6.07
x2 = 0.3104 | 7.39 | 7.2 | 7.01
x2 = 0.403 | 8.47 | 8.22 | 7.99
x2 = 0.4521 | 9.08 | 8.82 | 8.56
x2 = 0.4995 | 9.73 | 9.44 | 9.15
x2 = 0.5556 | 10.55 | 10.21 | 9.9
x2 = 0.5974 | 11.18 | 10.82 | 10.49
x2 = 0.6987 | 12.81 | 12.4 | 11.98
x2 = 0.7968 | 14.53 | 14.04 | 13.57
x2 = 0.8955 | 16.31 | 15.76 | 15.24
x2 = 0.9472 | 17.26 | 16.67 | 16.11
x2 = 0.9773 | 17.82 | 17.2 | 16.63

NC1CCCCC1 [cyclohexylamine]
[1]
Details | relative permittivity
293.15 K | 4.62
298.15 K | 4.53
303.15 K | 4.45

CCCCO [butan-1-ol]
[1]
Details | relative permittivity
293.15 K | 18.21
298.15 K | 17.58
303.15 K | 16.95

CCCO [propan-1-ol]
[1]
Details | relative permittivity
293.15 K | 21.23
298.15 K | 20.54
303.15 K | 19.84

CCCCO [butan-1-ol] + NC1CCCCC1
[2], x1 = 1
Details | relative permittivity
293.15 K | 18.21
298.15 K | 17.58
303.15 K | 16.95

NC1CCCCC1 [cyclohexylamine] + CCCCCCCCCCO
relative permittivity, [2]
Details | 293.15 K | 298.15 K | 303.15 K
x2 = 0 | 4.62 | 4.53 | 4.45
x2 = 0.0561 | 4.87 | 4.78 | 4.69
x2 = 0.1027 | 5.05 | 4.95 | 4.85
x2 = 0.2012 | 5.4 | 5.29 | 5.19
x2 = 0.2947 | 5.73 | 5.6 | 5.49
x2 = 0.4077 | 6.09 | 5.95 | 5.82
x2 = 0.5107 | 6.42 | 6.26 | 6.11
x2 = 0.5522 | 6.56 | 6.38 | 6.22
x2 = 0.604 | 6.72 | 6.53 | 6.36
x2 = 0.6528 | 6.88 | 6.68 | 6.5
x2 = 0.697 | 7.02 | 6.81 | 6.61
x2 = 0.7474 | 7.2 | 6.97 | 6.76
x2 = 0.7859 | 7.34 | 7.09 | 6.87
x2 = 0.8348 | 7.54 | 7.27 | 7.02
x2 = 0.8915 | 7.81 | 7.51 | 7.22
x2 = 0.942 | 8.08 | 7.73 | 7.41

CCCCCCCO [heptan-1-ol] + NC1CCCCC1
[2], x1 = 1
Details | relative permittivity
293.15 K | 11.97
298.15 K | 11.47
303.15 K | 10.98

CCCO [propan-1-ol] + NC1CCCCC1
[2], x1 = 1
Details | relative permittivity
293.15 K | 21.23
298.15 K | 20.54
303.15 K | 19.84

NC1CCCCC1 [cyclohexylamine] + CCCO
relative permittivity, [2]
Details | 293.15 K | 298.15 K | 303.15 K
x2 = 0 | 4.62 | 4.53 | 4.45
x2 = 0.034 | 4.88 | 4.78 | 4.68
x2 = 0.1154 | 5.64 | 5.08 | 5.37
x2 = 0.213 | 6.58 | 6.42 | 6.26
x2 = 0.3031 | 7.66 | 7.46 | 7.26
x2 = 0.3996 | 9.02 | 8.76 | 8.5
x2 = 0.4469 | 9.77 | 9.48 | 9.19
x2 = 0.4962 | 10.61 | 10.29 | 9.97
x2 = 0.5499 | 11.61 | 11.25 | 10.89
x2 = 0.6056 | 12.69 | 12.29 | 11.9
x2 = 0.6998 | 14.69 | 14.24 | 13.79
x2 = 0.7953 | 16.94 | 16.43 | 15.92
x2 = 0.8464 | 18.08 | 17.54 | 17.01
x2 = 0.8913 | 19.21 | 18.71 | 18.14
x2 = 0.9509 | 20.44 | 19.85 | 19.21
x2 = 0.9798 | 21.09 | 20.41 | 19.77

NC1CCCCC1 [cyclohexylamine] + CCCCCCCO
relative permittivity, [2]
Details | 293.15 K | 298.15 K | 303.15 K
x2 = 0 | 4.62 | 4.53 | 4.45
x2 = 0.0522 | 4.93 | 4.83 | 4.74
x2 = 0.1037 | 5.22 | 5.11 | 5.01
x2 = 0.2039 | 5.8 | 5.7 | 5.61
x2 = 0.2903 | 6.29 | 6.15 | 6.01
x2 = 0.3955 | 6.93 | 6.76 | 6.6
x2 = 0.4467 | 7.27 | 7.08 | 6.91
x2 = 0.5072 | 7.67 | 7.45 | 7.26
x2 = 0.5554 | 8.01 | 7.78 | 7.56
x2 = 0.5918 | 8.26 | 8.01 | 7.78
x2 = 0.6575 | 8.72 | 8.45 | 8.19
x2 = 0.6959 | 9.01 | 8.71 | 8.44
x2 = 0.7433 | 9.39 | 9.07 | 8.77
x2 = 0.7933 | 9.81 | 9.46 | 9.13
x2 = 0.8177 | 10.03 | 9.67 | 9.34
x2 = 0.8881 | 10.7 | 10.29 | 9.9
x2 = 0.9463 | 11.35 | 10.89 | 10.45

CCCCCCCCCCO [decan-1-ol]
[1]
Details | relative permittivity
293.15 K | 8.41
298.15 K | 8.01
303.15 K | 7.64

CCCCCCCCCCO [decan-1-ol] + NC1CCCCC1
[2], x1 = 1
Details | relative permittivity
293.15 K | 8.41
298.15 K | 8.01
303.15 K | 7.64
